# Reference: patent publication US11564923B2, “Compounds and pharmaceutical compositions thereof for the treatment of inflammatory disorders” (Galapagos NV, priority 2017, dated 2023)
# Read-outs that look alike come from different tables or passages of the source.
# Columns and labels:
# [1] = system: IL-12 activation of STAT4 in NK-92 cells; test: IL-12 activation of STAT4 in NK-92 cells using AphaLISA SureFire technology; assay type: cell-based; conditions: Homo sapiens
# How it was run: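 NK-92 cells, starved of rhIL-2 overnight, were stimulated with rhIL-12 for 30 min at 37 °C with test compounds, then lysed. Phospho-STAT4 (Tyr693) was read by AlphaLISA SureFire. Percent inhibition versus the vehicle-plus-trigger signal was fitted by sigmoidal nonlinear regression to give IC50, averaged over experiments.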
# [2] = system: IL-12 activation of STAT4 in NK-92 cells; test: IL-12 activation of STAT4 in NK-92 cells using MSD as readout; assay type: cell-based; conditions: Homo sapiens
# Experimental: IL-2 is added freshly to the medium with each medium refreshment step. Cells are cultured in a humidified incubator at 37° C. 5% CO2.
# NK-92 cells are pre-incubated with test compounds or vehicle for 30 min at 37° C. 5% CO2. […] NK-92 cells are triggered with rhIL-12 for 45 min at 37° C. 5% CO2.
# After 45 min of cytokine stimulation the cells are lysed by addition of 50 μL ice-cold lysis buffer (supplemented with the MSD kit). Plates are frozen at −80° C. for minimal 1 hour to lyse the cells completely. After thawing the levels of phospho-STAT4 are quantified using the Phospho-STAT4 (Tyr693) kit (MSD, Catalogue number K150PAD-2) according to the manufacturer's instructions. Electroluminescent signal is measured on the MSD reader.
# The percentage inhibition is calculated as: […]
# RLU (trigger/veh): Relative lumescent signal determined in presence of vehicle and trigger
# RLU (test compound): Relative luminescent signal determined in presence of test compounds)
# PIN values are plotted for compounds tested in dose-response and IC50 values are derived using LIMS Software applying non-linear regression (sigmoidal) curve fitting. The data are expressed as the average IC50 from different experiments.
# [3] = system: IFNα activation of STAT1 in PBMC; test: IFNα activation of STAT1 in PBMC; assay type: cell-based; conditions: Homo sapiens
# How it was run: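 Human PBMC, with red cells lysed by NH4Cl, were pre-treated with compound for 30 min at 37 °C and 5% CO2. They were then stimulated for 30 min with recombinant human IFNα at 5 ng/mL final.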
# [4] = target: T1, Recombinant human JAK1 (catalytic domain, amino acids 866-1154) (Homo sapiens, UniProt P23458); test: JAK1 inhibition assay; assay type: biochemical; conditions: read-out: JAK1 potency IC50
# T1 construct: catalytic domain, amino acids 866-1154
# T1 sequence (P23458 866-1154): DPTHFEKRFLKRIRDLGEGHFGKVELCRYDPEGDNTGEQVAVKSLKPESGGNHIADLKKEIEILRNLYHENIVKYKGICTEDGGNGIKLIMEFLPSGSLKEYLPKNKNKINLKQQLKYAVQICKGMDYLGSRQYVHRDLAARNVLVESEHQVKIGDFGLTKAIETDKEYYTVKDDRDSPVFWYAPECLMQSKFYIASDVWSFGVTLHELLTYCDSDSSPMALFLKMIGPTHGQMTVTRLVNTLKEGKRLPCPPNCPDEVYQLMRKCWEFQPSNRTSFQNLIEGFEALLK
# [5] = target: T2, Recombinant human TYK2 catalytic domain (amino acids 871-1187) (Homo sapiens, UniProt P29597); test: TYK2 radioactive assay polyGT substrate; assay type: biochemical; note: 0.1 µM ATP
# T2 construct: catalytic domain (amino acids 871-1187)
# T2 sequence (P29597 871-1187): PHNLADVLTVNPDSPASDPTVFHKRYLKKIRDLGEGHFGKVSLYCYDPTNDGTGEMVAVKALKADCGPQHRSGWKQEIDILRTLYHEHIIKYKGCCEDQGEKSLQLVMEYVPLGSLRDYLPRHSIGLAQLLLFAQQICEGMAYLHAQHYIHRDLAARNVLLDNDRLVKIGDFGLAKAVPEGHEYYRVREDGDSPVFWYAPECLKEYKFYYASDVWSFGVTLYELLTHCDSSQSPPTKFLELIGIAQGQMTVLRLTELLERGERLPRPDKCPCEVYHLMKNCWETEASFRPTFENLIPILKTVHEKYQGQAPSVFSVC
# How it was run: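 Reaction at 30° C. for 120 min, ended with 150 mM phosphoric acid, washed, counted; percent inhibition scaled between vehicle and 10 μM staurosporine cpm.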
# [6] = target: Recombinant human JAK3 catalytic domain (amino acids 781-1124) (Homo sapiens, UniProt P52333); test: JAK3 inhibition assay; assay type: biochemical
# Chain of Recombinant human JAK3 catalytic domain (amino acids 781-1124) (P52333 781-1124): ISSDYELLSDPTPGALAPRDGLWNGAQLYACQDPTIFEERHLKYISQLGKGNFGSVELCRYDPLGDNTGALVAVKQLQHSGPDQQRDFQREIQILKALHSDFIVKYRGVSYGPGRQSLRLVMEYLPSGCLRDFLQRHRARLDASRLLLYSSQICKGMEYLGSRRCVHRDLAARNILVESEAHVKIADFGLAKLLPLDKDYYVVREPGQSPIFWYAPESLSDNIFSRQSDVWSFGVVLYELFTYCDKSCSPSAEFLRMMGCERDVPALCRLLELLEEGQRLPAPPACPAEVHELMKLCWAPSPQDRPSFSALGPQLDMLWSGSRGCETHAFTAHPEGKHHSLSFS
# How it was run: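 Radiometric kinase reaction run 45 min at 30° C., stopped with phosphoric acid; activity as vehicle cpm minus 10 μM staurosporine cpm.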
# [7] = target: T3, Recombinant human JAK2 (catalytic domain, amino acids 808-1132) (Homo sapiens, UniProt O60674); test: JAK2 inhibition assay; assay type: biochemical; conditions: read-out: JAK2 potency IC50; note: 0.7 µM ATP
# T3 construct: catalytic domain, amino acids 808-1132
# T3 sequence (O60674 808-1132): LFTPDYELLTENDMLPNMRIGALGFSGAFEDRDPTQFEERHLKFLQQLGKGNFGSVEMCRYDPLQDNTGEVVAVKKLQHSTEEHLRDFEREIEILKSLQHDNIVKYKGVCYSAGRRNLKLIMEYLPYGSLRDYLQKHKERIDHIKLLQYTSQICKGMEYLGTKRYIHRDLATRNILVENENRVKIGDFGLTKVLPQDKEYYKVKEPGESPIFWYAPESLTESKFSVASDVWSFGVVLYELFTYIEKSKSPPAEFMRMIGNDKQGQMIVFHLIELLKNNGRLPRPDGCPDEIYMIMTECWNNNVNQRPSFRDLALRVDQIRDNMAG
# [8] = NK92, NK-92 cells, rhIL-12 25 ng/mL, MSD readout, read-out: IL12 pSTAT4 IC50
# [9] = IFNα activation of STAT1 in PBMC, average IC50, read-out: IFNα signaling inhibitory potency IC50
# [10] = NK92, IL-12 activation of STAT4 in NK-92 cells, AlphaLISA SureFire, average IC50, read-out: IL12 pSTAT4 IC50
structure (smiles),measurement,setting,value
"Cc1cc(S(C)(=O)=O)cc(F)c1Oc1cc(Nc2cc(N)ncn2)c2ncn(C)c2n1 [Compound 2, N-[5-(2-Fluoro-4-methanesulfonyl-6-methyl-phenoxy)-3-methyl-3H-imidazo[4,5-b]pyridin-7-yl]-pyrimidine-4,6-diamine]",IC50,"[1]; NK92, read-out: IL12 pSTAT4 IC50 (nM)",73.5 nM
same,IC50,"[2]; NK92, read-out: IL12 pSTAT4 IC50",259 nM
same,IC50,"[3]; PBMC, read-out: IFNα signaling inhibitory potency IC50 (nM)",87 nM
"CN(c1cc(Nc2cc(N)ncn2)c2ncn(C)c2n1)C1CCOCC1(C)C (centres unmarked) [Compound 11, N7-(6-Amino-pyrimidin-4-yl)-N5-(3,3-dimethyl-tetrahydro-pyran-4-yl)-3,N5-dimethyl-3H-imidazo[4,5-b]pyridine-5,7-diamine]",IC50,[2]; [8],377 nM
same,IC50,[4],27.2 nM
same,IC50,[5],1.81 nM
same,IC50,[6],143 nM
same,IC50,[7],4.75 nM
"C[C@H](N(C)c1cc(Nc2cc(N)ncn2)c2ncn(C)c2n1)C(C)(C)C [Compound 12, N7-(6-aminopyrimidin-4-yl)-N5,3-dimethyl-N5-[(1S)-1,2,2-trimethylpropyl]imidazo[4,5-b]pyridine-5,7-diamine]",IC50,[2]; [8],540 nM
same,IC50,[4],26.9 nM
same,IC50,[5],1.42 nM
same,IC50,[3]; [9],25 nM
same,IC50,[6],36.7 nM
same,IC50,[7],3.04 nM
"CN(c1cc(Nc2cc(N)ncn2)c2ncn(C)c2n1)c1c(F)cc(C#N)cc1C1CC1 [Compound 14, 4-{[7-(6-Amino-pyrimidin-4-ylamino)-3-methyl-3H-imidazo[4,5-b]pyridin-5-yl]-methyl-amino}-3-cyclopropyl-5-fluoro-benzonitrile]",IC50,[2]; [8],1500 nM
same,IC50,[4],91.4 nM
same,IC50,[5],3.83 nM
same,IC50,[6],279 nM
same,IC50,[7],17 nM
"C[C@H]1COCC[C@@H]1N(C)c1cc(Nc2cc(N)ncn2)c2ncn(C)c2n1 [Compound 17, N7-(6-Amino-pyrimidin-4-yl)-3,N5-dimethyl-N5-((3R,4S)-3-methyl-tetrahydro-pyran-4-yl)-3H-imidazo[4,5-b]pyridine-5,7-diamine]",IC50,[2]; [8],905 nM
same,IC50,[4],64.6 nM
same,IC50,[5],10.2 nM
same,IC50,[6],237 nM
same,IC50,[7],14.6 nM
"CN(c1cc(Nc2cc(N)ncn2)c2ncn(C)c2n1)C12CC(C1)C2 [Compound 18, N7-(6-Amino-pyrimidin-4-yl)-N5-bicyclo[1.1.1]pent-1-yl-3,N5-dimethyl-3H-imidazo[4,5-b]pyridine-5,7-diamine]",IC50,[2]; [8],4680 nM
same,IC50,[4],294 nM
same,IC50,[5],30.5 nM
same,IC50,[6],187 nM
same,IC50,[7],31.5 nM
"CC1COCCC1N(C)c1cc(Nc2cc(N)ncn2)c2ncn(C)c2n1 (centres unmarked) [Compound 19, N7-(6-Amino-pyrimidin-4-yl)-3,N5-dimethyl-N5-(3-methyl-tetrahydro-pyran-4-yl)-3H-imidazo[4,5-b]pyridine-5,7-diamine]",IC50,[1]; [10],72 nM
same,IC50,[2]; [8],806 nM
same,IC50,[4],80.9 nM
same,IC50,[5],10.7 nM
same,IC50,[6],231 nM
same,IC50,[7],11.2 nM
"CCNC(=O)c1ccc(Nc2cc(Oc3cnc(C#N)cc3C)nc3c2ncn3C)nn1 [Compound 23, 6-[5-(6-Cyano-4-methyl-pyridin-3-yloxy)-3-methyl-3H-imidazo[4,5-b]pyridin-7-ylamino]-pyridazine-3-carboxylic acid ethylamide]",IC50,[2]; [8],248 nM
same,IC50,[4],234 nM
same,IC50,[5],18.3 nM
same,IC50,[3]; [9],160 nM
same,IC50,[6],2930 nM
same,IC50,[7],66.7 nM
"Cc1cc(C#N)ncc1Oc1cc(Nc2ccc(C(=O)NCC(C)O)nn2)c2ncn(C)c2n1 (centres unmarked) [Compound 25, 6-[5-(6-Cyano-4-methyl-pyridin-3-yloxy)-3-methyl-3H-imidazo[4,5-b]pyridin-7-ylamino]-pyridazine-3-carboxylic acid (2-hydroxy-propyl)-amide]",IC50,[2]; [8],1120 nM
same,IC50,[4],243 nM
same,IC50,[5],19.2 nM
same,IC50,[3]; [9],198 nM
same,IC50,[6],2300 nM
same,IC50,[7],78.3 nM
"CCNC(=O)c1ccc(Nc2cc(Oc3cnc(C#N)cc3C)nc3c2ncn3C)cn1 [Compound 26, 5-[5-(6-Cyano-4-methyl-pyridin-3-yloxy)-3-methyl-3H-imidazo[4,5-b]pyridin-7-ylamino]-pyridine-2-carboxylic acid ethylamide]",IC50,[2]; [8],1530 nM
same,IC50,[4],338 nM
same,IC50,[5],74 nM
same,IC50,[7],873 nM
"CCNS(=O)(=O)c1ccc(Nc2cc(Oc3cnc(C#N)cc3C)nc3c2ncn3C)cc1 [Compound 53, 4-[[5-[(6-cyano-4-methyl-3-pyridyl)oxy]-3-methyl-imidazo[4,5-b]pyridin-7-yl]amino]-N-ethyl-benzenesulfonamide]",IC50,[2]; [8],409 nM
same,IC50,[4],68 nM
same,IC50,[5],9.22 nM
same,IC50,[3]; [9],119 nM
same,IC50,[6],495 nM
same,IC50,[7],72.7 nM
"Cc1cc(C#N)ncc1Oc1cc(Nc2ccc(S(C)(=O)=O)cn2)c2ncn(C)c2n1 [Compound 58, 4-methyl-5-[3-methyl-7-[(5-methylsulfonyl-2-pyridyl)amino]imidazo[4,5-b]pyridin-5-yl]oxy-pyridine-2-carbonitrile]",IC50,[2]; [8],595 nM
same,IC50,[4],97.8 nM
same,IC50,[5],7.42 nM
same,IC50,[3]; [9],88 nM
same,IC50,[6],1100 nM
same,IC50,[7],35.5 nM
"Cc1cc(C#N)ncc1Oc1cc(Nc2ccc(C(F)(F)F)cn2)c2ncn(C)c2n1 [Compound 59, 4-methyl-5-[3-methyl-7-[[5-(trifluoromethyl)-2-pyridyl]amino]imidazo[4,5-b]pyridin-5-yl]oxy-pyridine-2-carbonitrile]",IC50,[2]; [8],4720 nM
same,IC50,[4],461 nM
same,IC50,[5],69.2 nM
same,IC50,[3]; [9],407 nM
same,IC50,[6],3780 nM
same,IC50,[7],133 nM
Cc1cc(C#N)ncc1Oc1cc(Nc2ccc(S(=O)(=O)N3CCOCC3)cc2)c2ncn(C)c2n1 [Compound 63],IC50,[2]; [8],1140 nM
same,IC50,[4],102 nM
same,IC50,[5],7.58 nM
same,IC50,[3]; [9],128 nM
same,IC50,[6],584 nM
same,IC50,[7],70 nM
"Cc1cc(C#N)ncc1Nc1cc(Nc2ccc(C(=O)N(C)C)cc2)c2ncn(C)c2n1 [Compound 66, 4-[[5-[(6-cyano-4-methyl-3-pyridyl)amino]-3-methyl-imidazo[4,5-b]pyridin-7-yl]amino]-N,N-dimethyl-benzamide]",IC50,[1]; [10],205 nM
same,IC50,[2]; [8],1650 nM
same,IC50,[5],11.7 nM
same,IC50,[3]; [9],138 nM
"CC(Oc1cc(Nc2cc(N)ncn2)c2ncn(C)c2n1)C1CC1 (centres unmarked) [Compound 72, N4-[5-(1-cyclopropylethoxy)-3-methyl-imidazo[4,5-b]pyridin-7-yl]pyrimidine-4,6-diamine]",IC50,[1]; [10],57.2 nM
same,IC50,[2]; [8],27.7 nM
same,IC50,[5],1.41 nM
same,IC50,[3]; [9],124 nM
"Cc1cc(C#N)ncc1Oc1cc(Nc2ccc(C(=O)N(C)C)nn2)c2ncn(C)c2n1 [Compound 73, 6-[[5-[(6-cyano-4-methyl-3-pyridyl)oxy]-3-methyl-imidazo[4,5-b]pyridin-7-yl]amino]-N,N-dimethyl-pyridazine-3-carboxamide]",IC50,[1]; [10],158 nM
same,IC50,[2]; [8],199 nM
same,IC50,[5],3.44 nM
same,IC50,[3]; [9],81 nM
"CCNC(=O)c1ccc(Nc2cc(NC(C3CC3)C(F)(F)F)nc3c2ncn3C)cn1 (centres unmarked) [Compound 91, 5-[[5-[(1-cyclopropyl-2,2,2-trifluoro-ethyl)amino]-3-methyl-imidazo[4,5-b]pyridin-7-yl]amino]-N-ethyl-pyridine-2-carboxamide]",IC50,[2]; [8],3150 nM
same,IC50,[4],157 nM
same,IC50,[5],24.1 nM
same,IC50,[6],208 nM
same,IC50,[7],42 nM
